Converted amounts (≈) assume the structure as drawn.
Key:
Format in all cases: cell-based
[1] = tested on: Streptococcus mitis 02mitGR16I; test: Dilution method in liquid medium (MIC); details: incubation 24 h at 37°C, read-out: concentrations minimales inhibitrices (C.M.I.)
Method: (§1) Méthode des dilutions en milieu liquide
(§2) On a préparé une série de tubes dans lesquels on répartit une même quantité de milieu nutritif stérile. On distribue dans chaque tube des quantités croissantes du produit à étudier, puis chaque tube est ensemencé avec une souche bactérienne. Après incubation de vingt-quatre heures à l'étuve à 37°C, l'inhibition de la croissance est appréciée par transillumination de ce qui permet de déterminer les concentrations minimales inhibitrices (C.M.I.) exprimées en microgrammes/cm^3.

[2] = tested on: Streptococcus faecalis groupe D 02D2UC1; test: Dilution method in liquid medium (MIC); details: Enterococcus faecalis, incubation 24 h at 37°C, read-out: concentrations minimales inhibitrices (C.M.I.)
Method: as §1, §2

[3] = tested on: Staphylococcus aureus 011UC4; test: Dilution method in liquid medium (MIC); details: incubation 24 h at 37°C, read-out: concentrations minimales inhibitrices (C.M.I.)
Method: as §1, §2

[4] = tested on: Streptococcus pyogenes groupe A 02A1UC1; test: Dilution method in liquid medium (MIC); details: incubation 24 h at 37°C, read-out: concentrations minimales inhibitrices (C.M.I.)
Method: as §1, §2

[5] = tested on: Streptococcus pneumoniae 032UC1; test: Dilution method in liquid medium (MIC); details: incubation 24 h at 37°C, read-out: concentrations minimales inhibitrices (C.M.I.)
Method: as §1, §2

[6] = tested on: Streptococcus mitis 02mitCB1; test: Dilution method in liquid medium (MIC); details: incubation 24 h at 37°C, read-out: concentrations minimales inhibitrices (C.M.I.)
Method: as §1, §2

[7] = tested on: Streptococcus agalactiae groupe B 02B1HT1; test: Dilution method in liquid medium (MIC); details: incubation 24 h at 37°C, read-out: concentrations minimales inhibitrices (C.M.I.)
Method: as §1, §2

[8] = tested on: Streptococcus faecium groupe D 02D3HT1; test: Dilution method in liquid medium (MIC); details: Enterococcus faecium, incubation 24 h at 37°C, read-out: concentrations minimales inhibitrices (C.M.I.)
Method: as §1, §2

[9] = tested on: Streptococcus sp groupe G 02G0GR5; test: Dilution method in liquid medium (MIC); details: incubation 24 h at 37°C, read-out: concentrations minimales inhibitrices (C.M.I.)
Method: as §1, §2

[10] = tested on: Staphylococcus epidermidis 012GO11I; test: Dilution method in liquid medium (MIC); details: incubation 24 h at 37°C, read-out: concentrations minimales inhibitrices (C.M.I.)
Method: as §1, §2

[11] = tested on: Staphylococcus aureus 011G025I; test: Dilution method in liquid medium (MIC); details: incubation 24 h at 37°C, read-out: concentrations minimales inhibitrices (C.M.I.)
Method: as §1, §2

[12] = tested on: Streptococcus agalactiae groupe B 02B1SJ1; test: Dilution method in liquid medium (MIC); details: incubation 24 h at 37°C, read-out: concentrations minimales inhibitrices (C.M.I.)
Method: as §1, §2

[13] = tested on: Haemophilus Influenzae 351CA1; test: Antibacterial activity on gram-negative strains; details: result in words
Method: as §2

[14] = tested on: Haemophilus Influenzae 351HT3; test: Antibacterial activity on gram-negative strains; details: result in words
Method: as §2

[15] = tested on: Haemophilus Influenzae 351CB12; test: Antibacterial activity on gram-negative strains; details: result in words
Method: as §2

[16] = tested on: Haemophilus Influenzae 351GR6; test: Antibacterial activity on gram-negative strains; details: result in words
Method: as §2

CC[C@H]1OC(=O)[C@H](C)C(=O)[C@H](C)[C@@H](O[C@@H]2O[C@H](C)C[C@H](N(C)C)[C@H]2O)[C@](C)(OC)C[C@@H](C)C(=O)[C@H](C)[C@H]2N(COCCn3cnc(-c4cccnc4)c3)C(=O)O[C@]12C [Ex. 2]
MIC [1]: ≤ 0.02 µg/mL
MIC [2]: ≤ 0.02 µg/mL
MIC [3]: 0.08 µg/mL (≈ 0.0983 µM)
MIC [4]: ≤ 0.02 µg/mL
MIC [5]: 0.02 µg/mL (≈ 0.0246 µM)
MIC [6]: ≤ 0.02 µg/mL
MIC [7]: ≤ 0.02 µg/mL
MIC [8]: ≤ 0.02 µg/mL
MIC [9]: ≤ 0.02 µg/mL
MIC [10]: 0.08 µg/mL (≈ 0.0983 µM)
MIC [11]: 0.08 µg/mL (≈ 0.0983 µM)
MIC [12]: 0.08 µg/mL (≈ 0.0983 µM)

CC[C@H]1OC(=O)[C@H](C)C(=O)[C@H](C)[C@@H](O[C@@H]2O[C@H](C)C[C@H](N(C)C)[C@H]2O)[C@](C)(OC)C[C@@H](C)C(=O)[C@H](C)[C@H]2N(COCCc3ccccc3)C(=O)O[C@]12C [Ex. 3, 11,12-didéoxy-3-de[(2,6-didéoxy-3-C-méthyl-3-O-méthyl-alpha-L-ribo-hexopyranosyl)oxy]-6-O-méthyl-3-oxo-12,11-[oxycarbonyl[[(2-phényléthoxy)méthyl]imino]]-érythromycine]
MIC [1]: ≤ 0.02 µg/mL
MIC [2]: ≤ 0.04 µg/mL
MIC [3]: 0.04 µg/mL (≈ 0.0536 µM)
MIC [4]: ≤ 0.02 µg/mL
MIC [5]: ≤ 0.02 µg/mL
MIC [6]: ≤ 0.02 µg/mL
MIC [7]: ≤ 0.02 µg/mL
MIC [8]: ≤ 0.02 µg/mL
MIC [9]: ≤ 0.02 µg/mL
MIC [10]: 0.08 µg/mL (≈ 0.107 µM)
MIC [11]: 0.15 µg/mL (≈ 0.201 µM)
MIC [12]: 0.04 µg/mL (≈ 0.0536 µM)

CC[C@H]1OC(=O)[C@H](C)C(=O)[C@H](C)[C@@H](O[C@@H]2O[C@H](C)C[C@H](N(C)C)[C@H]2O)[C@](C)(OC)C[C@@H](C)C(=O)[C@H](C)[C@H]2N(COCCOC)C(=O)O[C@]12C [exemple 1, 11,12-didéoxy-3-de[(2,6-didéoxy-3-C-méthyl-3-O-méthyl-alpha-L-ribo-hexopyranosyl)oxy]-6-O-méthyl-3-oxo-12,11-[oxycarbonyl[[(2-méthoxyéthoxy)méthyl]imino]]-érythromycine]
activité sur les souches bactériennes à gram⊖ [13]: activité intéressante
activité sur les souches bactériennes à gram⊖ [14]: activité intéressante
activité sur les souches bactériennes à gram⊖ [15]: activité intéressante
activité sur les souches bactériennes à gram⊖ [16]: activité intéressante
